# Target: T1, human T1R1, a rat-human T1R3 chimera, and the promiscuous G-protein G16gust25 (UniProt Q7RTX1+Q923K1, A568E/A645S/A698V/A702T/A793V/A807V/C582S/C678S/E725V/E827G/F612A/F622V/F805L/I617V/I740A/I779T/I803L/K818R/L735F/L823M/L825Q/M644L/M706V/M729T/N675D/Q717H/Q757R/Q795R/Q831P/R632Q/R634S/S576L/S610P/S635P/S637R/S679G/T588V/T694M/T813A/V584A/V718M/V723A/V738A/V744T/V821L/W599R/W676R/W824R/Y598H/Y680C/Y794L)
# T1 sequence (Q7RTX1 21-841): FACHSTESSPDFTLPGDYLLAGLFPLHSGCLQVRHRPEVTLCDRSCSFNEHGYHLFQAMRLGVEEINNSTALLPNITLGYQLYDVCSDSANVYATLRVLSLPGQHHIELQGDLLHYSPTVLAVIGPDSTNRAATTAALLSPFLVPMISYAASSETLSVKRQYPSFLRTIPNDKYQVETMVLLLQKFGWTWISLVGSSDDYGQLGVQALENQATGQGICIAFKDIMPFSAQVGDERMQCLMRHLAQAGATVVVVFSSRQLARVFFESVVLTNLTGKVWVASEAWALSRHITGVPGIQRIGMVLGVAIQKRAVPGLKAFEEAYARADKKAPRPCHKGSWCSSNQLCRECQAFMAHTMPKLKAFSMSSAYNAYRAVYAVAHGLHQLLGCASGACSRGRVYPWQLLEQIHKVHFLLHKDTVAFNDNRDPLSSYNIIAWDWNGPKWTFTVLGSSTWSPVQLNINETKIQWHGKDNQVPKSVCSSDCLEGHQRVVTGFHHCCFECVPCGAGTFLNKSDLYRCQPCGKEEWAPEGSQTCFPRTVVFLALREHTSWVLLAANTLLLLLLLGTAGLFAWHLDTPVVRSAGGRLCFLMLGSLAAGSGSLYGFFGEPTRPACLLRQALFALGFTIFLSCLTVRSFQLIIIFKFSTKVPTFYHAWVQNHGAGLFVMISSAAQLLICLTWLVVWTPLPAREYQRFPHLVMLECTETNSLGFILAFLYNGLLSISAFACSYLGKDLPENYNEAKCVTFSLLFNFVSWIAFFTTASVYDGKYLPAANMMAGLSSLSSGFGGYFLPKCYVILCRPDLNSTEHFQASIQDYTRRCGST
# T1 sequence (Q923K1 with tags, fused parts or gaps A568E/S576L/C582S/V584A/T588V/Y598H/W599R/S610P/F612A/I617V/F622V/R632Q/R634S/S635P/S637R/M644L/A645S/N675D/W676R/C678S/S679G/Y680C/T694M/A698V/A702T/M706V/Q717H/V718M/V723A/E725V/M729T/L735F/V738A/I740A/V744T/Q757R/I779T/A793V/Y794L/Q795R/I803L/F805L/A807V/T813A/K818R/V821L/L823M/W824R/L825Q/E827G/Q831P limits assumed): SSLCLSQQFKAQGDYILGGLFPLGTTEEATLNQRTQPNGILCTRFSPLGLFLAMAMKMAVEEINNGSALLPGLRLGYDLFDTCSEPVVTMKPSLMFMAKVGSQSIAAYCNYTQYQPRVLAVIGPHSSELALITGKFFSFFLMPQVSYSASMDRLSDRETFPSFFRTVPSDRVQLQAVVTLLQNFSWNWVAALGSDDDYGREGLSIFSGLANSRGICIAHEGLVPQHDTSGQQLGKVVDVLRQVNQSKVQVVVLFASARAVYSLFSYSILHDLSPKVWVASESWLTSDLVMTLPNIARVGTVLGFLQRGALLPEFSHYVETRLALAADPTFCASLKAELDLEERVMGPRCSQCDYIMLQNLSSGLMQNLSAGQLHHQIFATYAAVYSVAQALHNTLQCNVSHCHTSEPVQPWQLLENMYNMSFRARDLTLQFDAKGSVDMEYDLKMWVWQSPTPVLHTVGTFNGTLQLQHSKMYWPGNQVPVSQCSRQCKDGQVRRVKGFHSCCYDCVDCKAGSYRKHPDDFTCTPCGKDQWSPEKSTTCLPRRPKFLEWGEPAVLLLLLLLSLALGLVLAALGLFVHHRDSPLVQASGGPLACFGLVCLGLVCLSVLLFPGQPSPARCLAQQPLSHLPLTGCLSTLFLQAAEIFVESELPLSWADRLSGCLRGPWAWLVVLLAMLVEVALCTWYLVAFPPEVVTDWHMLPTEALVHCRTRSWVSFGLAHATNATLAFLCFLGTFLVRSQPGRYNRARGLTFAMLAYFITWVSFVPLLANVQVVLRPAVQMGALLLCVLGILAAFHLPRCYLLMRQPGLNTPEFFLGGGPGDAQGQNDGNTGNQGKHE
# Details: MSG dose response, U2OS cell line, FIG. 4A
# From the text: The x-axis plots the log of MSG concentration, while the y-axis plots fold change in fluorescence of a Ca^2+-sensitive fluorescent dye in response to intracellular Ca^2+ concentration.
# The x-axis plots the log of savory compound concentration, while the y-axis plots fold change in fluorescence of a Ca^2+-sensitive fluorescent dye in response to intracellular Ca^2+ concentration. FIG. 4A also indicates the EC50 for each compound.
smiles,measurement,value
"N[C@@H](CCC(=O)O)C(=O)[O-].[Na+] [MSG, monosodium glutamate]",fold change in fluorescence of a Ca^2+-sensitive fluorescent dye in response to intracellular Ca^2+ concentration,fluorescence detectably increases as MSG concentration increases
